In patent publication US20030152637A1, “Local anesthetic, and method of use” (priority 2001, published 2003):

Experiments:
[1] = Moore et al. 1976; cited from earlier work
[2] = In-vitro release of bupivacaine, USP Apparatus 2 Paddle Method, pH 3.0; format: physicochemical
Experimental: The in-vitro dissolution range described above may be determined by subjecting the local anesthetic formulation to in-vitro conditions specified by the USP II Paddle Method, 100 RPM, 37 degrees Celsius, pH 3.0 in 900 ml of 10 mM sodium phosphate buffer.
(§1) The in-vitro release of bupivacaine from the microcapsules of Examples 1 and 2 was examined. Dissolution was performed by using USP Apparatus 2 Paddle Method <711>at 100 rpm at 37° C. A 80 mg±3 mg of sample, irrespective of microcapsules formulation, was employed per vessel containing 900 mL of 10 mM Sodium Phosphate Buffer, pH 3.0. The samples (clear solution) were withdrawn at preset time intervals and analyzed for bupivacaine base by HPLC. The HPLC conditions are:
as §1, with “the microspheres” for “the microcapsules”, “Examples 2 (batches 1-4), 2A, 3,” for “Examples 1”, “and 4” for “and 2”, “Method at” for “Method <711>at”, “of microsphere” for “of microcapsules”, “HPLC.” for “HPLC. The HPLC conditions are:”
The in-vitro release of bupivacaine from the microspheres of Examples 2B was examined. Dissolution was performed by using USP Apparatus 2 Paddle Method <711> at 100 rpm at 37° C. A 80 mg±3 mg of sample, irrespective of microsphere formulation, was employed per vessel containing 900 mL of 10 mM Sodium Phosphate Buffer, pH 3.0. The samples (clear solution) were withdrawn at preset time intervals and analyzed for bupivacaine base by HPLC. The following 24 hour dissolution release rates in Table 7B are preferred release rates which were based on batches made in accordance with the formulation of Example 2B (10 Kg scale batches).

In the case of CCCCN1CCCCC1C(=O)Nc1c(C)cccc1C (stereo not drawn) [Bupivacaine base], the “plasma bupivacaine level at which systemic toxic reactions are believed to occur” value [1] is listed as 4000 ng/mL, the “In Vitro Release of Bupivacaine (Cumulative Release %)” value ([2]; 0.5 h) is listed as 96.5% and the “In Vitro Release of Bupivacaine (Cumulative Release %)” value ([2]; 1 h) is listed as 97.09%. For the same compound, the “In Vitro Release of Bupivacaine (Cumulative Release %)” value ([2]; 2 h) was 97.035%, the “In Vitro Release of Bupivacaine (Cumulative Release %)” value ([2]; 3 h) was 97.275% and the “In Vitro Release of Bupivacaine (Cumulative Release %)” value ([2]; 4 h) was 97.665%.
